Experimental findings from US20220299532A1, “CORRECTING PROTEIN MISFOLDING IN DIABETES” (Sanford Burnham Prebys Medical Discovery Institute, priority 2019, published 2022) are described below.

In one experiment the test system is INS-832/13 β-cell line. The experiment in a line: Detection of myc-tagged two-cysteine proinsulin mutants in INS-832/13 cells, nonreducing SDS-PAGE immunoblot. The experiment is classed as cell-based, rat. Conditions: MG132 10 μg/mL for 7 h. How it is done: (§1) Cell and islet culture: Rat pancreatic beta cell lines INS1E and INS-832/13 were cultured in RPMI-1640 medium supplemented with 10% FBS, 10 mM HEPES pH 7.35, 1 mM sodium pyruvate, penicillin/streptomycin and 0.05 mM beta-mercaptoethanol. HEK293T human cells lines were cultured in DMEM supplemented with 10% FBS and penicillin/streptomycin.
(§2) Transfection of cells: 293T cells, INS1E cells, and INS-832/13 cells at 70-80% confluency were transiently transfected using Lipofectamine 2000 (ThermoFisher) as per the manufacturer's instructions. A medium change was performed 5 h post-transfection and the cells were lysed at 36 or 48 h.
(§3) Lysis of cells or islets for SDS-PAGE and electrotransfer: After removal of media, cells were washed once with ice-cold PBS and lysed in RIPA buffer (10 mM Tris pH 7.4, 150 mM NaCl, 0.1% SDS, 1% NP40, 2 mM EDTA) plus protease inhibitor/phosphatase inhibitor cocktail (Sigma-Aldrich) or directly in Laemmli gel sample buffer. Lysates in RIPA buffer were immediately spun at 10,000 rpm for 10 min at 4° C. and the supernatants analyzed further or stored at −80° C. […] Total protein concentration in the lysate was determined by BCA or Bramhall assay, and 5-10 μg of samples prepared in SDS sample were resolved by SDS-PAGE in 4-12% Bis-Tris NuPAGE gels (Invitrogen) at 200 V for 30 min. […]
(A western blot detects proteins with antibodies after separation by electrophoresis.)

The test system of experiment [1] is murine embryonic fibroblasts (MEFs). Nature of the experiment: Human proinsulin delivered by adenovirus to murine embryonic fibroblasts, non-reducing SDS-PAGE. The experiment is classed as cell-based, mouse. Conditions: MEFs infected with Ad-hProins, increasing concentrations of DTT. The method, then:
Generation and culture of primary mouse embryonic fibroblast (MEF): WT C57BL/6 d14 embryos were isolated under sterile conditions and placed in 100 mm cell culture dish containing PBS. Placental and other maternal tissues were removed and the embryos were washed three times with PBS. Heads and visceral organs were removed. The heads were used for genotyping. Embryos were finely minced with a sterile razor blade and treated with 1 ml of 0.25% trypsin/EDTA (Corning) for 40 min at 37° C. DMEM medium (Corning) supplemented with 10% FBS, 1% penicillin/streptomycin, 100 μg/ml primocin and 1 mM sodium pyruvate was added to quench trypsin activity. Tissue homogenate was subsequently disaggregated by repeated pipetting, and further centrifuged to collect the fibroblast cell pallet. Cells were plated in 100 mm culture dish in DMEM medium at 37° C. in a cell culture incubator under 5% CO2. To prevent mycoplasma, bacterial, and fungal contamination, primary MEFs were cultured in medium containing 100 μg/ml primocin (InvivoGen) and used for experiments prior to passage #5.
To study the impact of PDIA1 in the absence of C peptide processing in a more manipulatable system, the inventors analyzed human proinsulin expression delivered by adenovirus to murine embryonic fibroblasts (MEFs) that were co-infected with WT PDIA1 or PDIA1 with 4 Cys to Ser mutations in the two vicinal catalytic PDI sites. […]

The test system of another experiment is mouse pancreatic islets. The experiment in a line: Proinsulin disulfide-linked / HMW complexes in murine islets, SDS-PAGE immunoblot (CCI-17). Conditions: islets of WT male mice on regular diet, increasing concentrations of DTT in culture. The experiment is classed as cell-based. The method, then: Mouse pancreatic islet isolation: Mice were euthanized by CO2 narcosis as per an approved institutional animal protocol. The pancreas was rapidly excised, minced in ice-cold PBS, and digested in 4 mL of Collagenase P (Roche) 1.5 mg/mL in Hank's Balanced Salt Solution containing calcium and magnesium, in a shaking water bath for 30 min at 37° C. The digestion was terminated in 40 mL ice-cold PBS (—Ca/—Mg) and the digested tissue washed twice in this buffer. The sedimented tissue digest was then overlaid with 3 mL Histopaque-1077 and further overlayed with 6 mL ice cold PBS (—Ca/—Mg) before centrifugation (3000 rpm for 20 min at 10° C. with no brake) and transfer of the midlayer of the Histopaque gradient to a 15 ml tube for two further washes in ice-cold PBS. Finally, the sedimented tissue was transferred to a petri dish in ice-cold RPMI-1640 buffer and islets hand-picked to purity. In experiments involving drug or compound treatment, the islets were finally recovered overnight in RPMI-1640 supplemented with 10% fetal bovine serum (FBS), 10 mM HEPES pH 7.35, 1 mM sodium pyruvate and 0.05 mM beta-mercaptoethanol, in a humidified 5% CO2 incubator at 37° C. For some experiments, islets were snap frozen in liquid nitrogen and stored frozen prior to analysis.
(§4) Lysis of cells or islets for SDS-PAGE and electrotransfer: After removal of media, cells were washed once with ice-cold PBS and lysed in RIPA buffer (10 mM Tris pH 7.4, 150 mM NaCl, 0.1% SDS, 1% NP40, 2 mM EDTA) plus protease inhibitor/phosphatase inhibitor cocktail (Sigma-Aldrich) or directly in Laemmli gel sample buffer. Lysates in RIPA buffer were immediately spun at 10,000 rpm for 10 min at 4° C. and the supernatants analyzed further or stored at −80° C. Islets that had been quick frozen were placed on ice and RIPA buffer containing protease inhibitor cocktail and phosphatase inhibitor was added. Lysis was carried out by gently pipetting or by syringe through a 30G needle. Total protein concentration in the lysate was determined by BCA or Bramhall assay, and 5-10 μg of samples prepared in SDS sample were resolved by SDS-PAGE in 4-12% Bis-Tris NuPAGE gels (Invitrogen) at 200 V for 30 min. Nonreducing gels were incubated in a solution containing 20 mM dithiothreitol (DTT) for 10 min at room temperature prior to electrotransfer.
(§5) Immunoblotting: Transfer membranes were rinsed once in TBST (15 mM Tris, 150 mM NaCl, 0.1% Tween-20), blocked using TST plus 5% BSA for 1 h at room temperature, and then washed four times (5 min each) in TBST. Primary antibody and secondary antibodies were diluted in TBST and each of […] incubations was 1 h at room temperature followed by 4 washes in TBST. On occasion, primary antibodies were incubated overnight at 4° C. Secondary antibodies were all HRP-conjugates. Development of immunoblots used enhanced chemiluminescence (Immobilon, Millipore, or SuperSignal West Pico PLUS, Thermo Fisher Scientific) with images captured using a Fotodyne gel imager.
Islet Isolation: Islets were isolated by collagenase P (Roche) perfusion as described following by histopaque-1077 (Sigma-Aldrich, Inc. St. Louis) gradient purification. Islets were handpicked and studied directly or after overnight culture in RPMI 1640 medium (Corning 10-040-CV) supplemented with 10% FBS, 1% penicillin/streptomycin, 100 μg/m1 primocin, 10mM Hepes, and 1mM sodium pyruvate.
Islet Western Blotting: Isolated islets were lysed in RIPA buffer (10 mM Tris pH 7.4, 150 mM NaCl, 0.1% SDS, 1% NP-40, 2mM EDTA) with protease and phosphatase inhibitors (Fisher Scientific) on ice for 10 min and lysates were collected after centrifugation at 4° C. for 10 min at 12000 g. Samples were prepared in Laemmli sample buffer without (non-reducing) or with (reducing) 5% β-mercaptoethanol. After boiling for 5 min, samples were analyzed by SDS-PAGE (4-12% Bis-Tris gel, (Bio-Rad Laboratories, Inc.)) and transferred to nitrocellulose membranes (Bio-Rad Laboratories, Inc.). […]

Experiment [2] deals with INS1E cells. The experiment in a line: Proinsulin disulfide-linked complexes in INS1E cells, nonreducing/reducing SDS-PAGE and immunoblotting (mAb CCI-17). The experiment is classed as cell-based, rat. The method, then:
HEK293T human cells lines were cultured in DMEM supplemented with 10% FBS and penicillin/streptomycin.
as §4, with “Islets that had been quick frozen were placed on ice and RIPA buffer containing protease inhibitor cocktail and phosphatase inhibitor was added.” left out, “Total protein concentration in the lysate was determined by BCA or Bramhall assay, and 5-10 μg of samples prepared in SDS sample were resolved by SDS-PAGE in 4-12% Bis-Tris NuPAGE gels (Invitrogen) at 200 V for 30 min.” left out
The lane was then laid horizontally on top of a 10% SDS-polyacrylamide resolving gel and sealed in place in stacking gel. A single-tooth comb was introduced at one end of the stacking gel to introduce a one-dimensional reduced sample of proinsulin containing cell lysate (which runs as proinsulin monomer). The gel was run at 200 V for 45 mins in Tris-Glycine buffer pH 8.8 with electrotransfer as described above.
as §5

A further experiment relates to human islets. The experiment in a line: Proinsulin disulfide-linked complexes in human islets, SDS-PAGE immunoblot (mAb 20G11). The experiment is classed as cell-based. Conditions: overnight PERK inhibitor. How it is done:
Human pancreatic islets: Human islets were obtained either from Prodo Labs, or from the NIDDK-funded Integrated Islet Distribution Program (IIDP; NIH UC4-DK098085) and maintained in a humidified 5% CO2 incubator at 37° C. Human islets were cultured ex vivo for up to 96 h in Prodo PIM(R) islet19 specific tissue culture medium supplemented with 10% FBS and Prodo PIM(G) glutamine/glutathione supplement, plus penicillin/streptomycin.
as §4, with “Nonreducing gels were incubated in a solution containing 20 mM dithiothreitol (DTT) for 10 min at room temperature prior to electrotransfer.” left out

A further experiment deals with 293T cells. The experiment in a line: Disulfide-linked complexes of recombinant human proinsulin in 293T cells, nonreducing SDS-PAGE immunoblot (mAb 20G11). The experiment is classed as cell-based. Conditions: overnight PERK inhibitor. The method, then:
as §1, §2, §3

Experiment [3] has as its system INS1E cells. Nature of the experiment: Intracellular proinsulin distribution in INS1E cells, indirect immunofluorescence. The experiment is classed as cell-based, rat. Conditions: overnight PERK inhibitor, anti-proinsulin GS-9A8 and anti-calnexin. The method, then:
Immunohistochemistry/immunocytochemistry: Pancreatic paraffin sections were de-paraffinized with Citrisolv (Fisher Scientific) for 5 min at room temperature, re-hydrated in a series of 8 min ethanol incubations: 100%, 95%, 70%, and distilled water. Antigen retrieval was carried out using Retrieve-ALL 1 Universal pH 8 (BioLegend) and slides were heated in a microwave, cooled for 30 min at room temperature, and incubated once with PBS for 5 min. Blocking was performed in 150 μL blocking buffer (3% BSA prepared in TBS and 0.2% Triton X-100) per section for 2 h at room temperature. Blocking buffer was removed and 150 μL per section of primary antibody appropriately diluted in TBS plus 3% BSA and 0.2% Tween-20 was incubated overnight at 4° C. The primary antibody was removed and the slide washed twice with TBS/0.1% Tween-20. Then, 150 μL secondary antibody (1:500 dilution, prepared in antibody buffer) per section was incubated for 1 h at room temperature. Slides were washed thrice with TBS/0.1% Tween-20, mounted with a drop of prolong gold anti-fade reagent with DAPI (ThermoFisher) and a cover slip affixed. For immunocytochemistry, INS1E cells were grown in an 8-well Millicell® EZ SLIDE (Millipore-SIGMA). Cells were allowed to reach 60-80% confluency before addition of PERK inhibitor (PERKi) or vehicle. […]

Residues, ends and D or L forms follow the SMILES beside them. *: point of attachment. Cbz = O=C(OCc1ccccc1)*

On to `CC(C)C[C@@H](C=O)NC(=O)[C@H](CC(C)C)NC(=O)[C@H](CC(C)C)NC(=O)OCc1ccccc1` [MG132] (Cbz-Leu-Leu-Leu-aldehyde), for which, in the experiment on INS-832/13 β-cell line, the “detection of myc-tagged proinsulin mutants (keep-B7/A7, keep-A6/A11, keep-B19/A20)” value is “myc-tagged proinsulin monomers were detected in all cases”.

As for `O[C@H](CS)[C@H](O)CS` (racemic) [dithiothreitol], the reduced proinsulin entry in experiment [1] is “increased the amount of reduced proinsulin”. In addition, the “proinsulin monomer and dimer” value with mouse pancreatic islets was “increasing amounts of the proinsulin monomer and residual disulfide-linked dimer”.

`Cc1cccc(CC(=O)N2CCc3c2ccc(-c2cn(C)c4ncnc(N)c24)c3F)n1` [PERK inhibitor, GSK2656157]: in the experiment on INS1E cells [2] (INS1E cells treated with PERK inhibitor, 2D nonreducing/reducing SDS-PAGE), the “disulfide-linked proinsulin complexes as share of all recovered proinsulin” value turned out to be 87%. The “intracellular proinsulin in disulfide-linked complexes with increasing time of exposure” value with INS1E cells [2] (INS1E cells, PERK inhibitor for last 0, 5, 10 or 20 h) is “the majority of intracellular proinsulin accumulated in disulfide-linked complexes”. For the same compound, in the experiment on INS1E cells [2] (INS1E cells, PERK inhibitor overnight (GSK2656157, 2 μM) vs vehicle DMSO), the “intracellular accumulation of proinsulin” value is given as “dramatically increased”. In addition, the insulin content result in the experiment on INS1E cells [2] (INS1E cells, PERK inhibitor up to 20 h) is recorded as “decreased insulin content”. In the experiment with INS1E cells [2] (INS1E cells, PERK inhibitor up to 20 h, media), the proinsulin secretion result was “decreased proinsulin secretion”. In the experiment on INS1E cells [2] (INS1E cells, overnight PERK inhibitor, nonreducing SDS-PAGE of media), the “secretion of proinsulin to the medium” value was “not increased”. Also, the “higher order disulfide-linked proinsulin complexes” value with human islets (nonreducing SDS-PAGE) was “further increase in higher order disulfide-linked complexes”. In addition, the total islet proinsulin result with human islets (reducing SDS-PAGE) is listed as “increase in total islet proinsulin”. In addition, the “disulfide-linked proinsulin dimers and higher-order complexes of recombinant human proinsulin” value in the experiment on 293T cells is reported as “accumulated to a dramatically higher level”. Besides, the intracellular proinsulin distribution entry in the experiment with INS1E cells [3] is listed as “shifted its distribution to the classic impacted-ER phenotype”.
